Experimental data taken from ChEMBL document CHEMBL3885881, “DrugMatrix”.

Species on record: Rattus norvegicus
Experiment: DrugMatrix - Regimen: Daily Repeat
Type: toxicity, organism-based, Sprague-Dawley
Design: regimen Daily Repeat, gender Male, age 6-8 weeks
Settings: in vivo, po, route oral GAVAGE, vehicle 100 % WATER; for ABSOLUTE BASOPHIL / ABSOLUTE EOSINOPHIL / ABSOLUTE LYMPHOCYTE / ABSOLUTE MONOCYTE / ABSOLUTE SEGMENTED NEUTROPHIL / BASOPHIL / EOSINOPHIL / ERYTHROCYTE COUNT / HEMATOCRIT / HEMOGLOBIN / LEUKOCYTE COUNT / LYMPHOCYTE / MEAN CORPUSCULAR HEMOGLOBIN / MEAN CORPUSCULAR HEMOGLOBIN CONCENTRATION / MEAN CORPUSCULAR VOLUME / MONOCYTE / NEUTROPHIL / NUCLEATED RED BLOOD CELLS / PLATELET COUNT: tissue Blood; for ALANINE AMINOTRANSFERASE / ALBUMIN / ALKALINE PHOSPHATASE / ASPARTATE AMINOTRANSFERASE / BLOOD UREA NITROGEN / CARBON DIOXIDE / CHLORIDE / CHOLESTEROL / CREATINE PHOSPHOKINASE / CREATININE / GLUCOSE / LACTATE DEHYDROGENASE / LIPASE / PHOSPHORUS / POTASSIUM / SODIUM / TOTAL BILIRUBIN / TOTAL PROTEIN / URIC ACID: tissue Plasma
[1] = 0 mg/kg, 72 h, dose level Control, time 3 day
[2] = 0 mg/kg, 120 h, dose level Control, time 5 day
[3] = 11 mg/kg, 72 h, dose level Low, time 3 day

In the case of CNS(=O)(=O)Cc1ccc2[nH]cc(CCN(C)C)c2c1, the “ABSOLUTE BASOPHIL” value [1] is reported as 0 CELLS/uL, the “ABSOLUTE EOSINOPHIL” value [1] is reported as 86.33 CELLS/uL and the “ABSOLUTE LYMPHOCYTE” value [1] is reported as 12090.17 CELLS/uL. For the same molecule, the “ABSOLUTE MONOCYTE” value [1] was 166.67 CELLS/uL, the “ABSOLUTE SEGMENTED NEUTROPHIL” value [1] was 1090.17 CELLS/uL and the BASOPHIL [1] was 0%. For the same molecule, the EOSINOPHIL [1] was 0.67%, the “ERYTHROCYTE COUNT” value [1] was 5.57 x10E6/uL and the HEMATOCRIT [1] was 35.33%. The HEMOGLOBIN [1] was 13.83 G/DL, the “LEUKOCYTE COUNT” value [1] was 13.43 x10E3/uL and the LYMPHOCYTE [1] was 89.83%. The “MEAN CORPUSCULAR HEMOGLOBIN” value [1] was 24.88 pg, the “MEAN CORPUSCULAR HEMOGLOBIN CONCENTRATION” value [1] was 39.15 G/DL and the “MEAN CORPUSCULAR VOLUME” value [1] was 63.52 fL. For the same molecule, the MONOCYTE [1] was 1.17%, the NEUTROPHIL [1] was 8.33% and the “NUCLEATED RED BLOOD CELLS” value [1] was 0 /100WBC. The “PLATELET COUNT” value [1] was 1181.33 x10E3/uL, the “ALANINE AMINOTRANSFERASE” value [1] was 48.33 u/L and the ALBUMIN [1] was 4.1 G/DL. For the same molecule, the “ALKALINE PHOSPHATASE” value [1] was 395 u/L, the “ASPARTATE AMINOTRANSFERASE” value [1] was 81.83 u/L and the “BLOOD UREA NITROGEN” value [1] was 15.83 mg/dL. The “CARBON DIOXIDE” value [1] was 24.17 mmol/L, the CHLORIDE [1] was 103.83 MEQ/L and the CHOLESTEROL [1] was 63.67 mg/dL. For the same molecule, the “CREATINE PHOSPHOKINASE” value [1] was 372.83 u/L, the CREATININE [1] was 0.18 mg/dL and the GLUCOSE [1] was 173.83 mg/dL. For the same molecule, the “LACTATE DEHYDROGENASE” value [1] was 188.33 u/L, the LIPASE [1] was 9.5 u/L and the PHOSPHORUS [1] was 11.95 mg/dL. The POTASSIUM [1] was 5.99 MEQ/L, the SODIUM [1] was 144.43 MEQ/L and the “TOTAL BILIRUBIN” value [1] was 0.15 mg/dL. The “TOTAL PROTEIN” value [1] was 5.95 G/DL, the “URIC ACID” value [1] was 1.82 mg/dL and the “ABSOLUTE BASOPHIL” value [2] was 0 CELLS/uL. For the same molecule, the “ABSOLUTE EOSINOPHIL” value [2] was 26.67 CELLS/uL, the “ABSOLUTE LYMPHOCYTE” value [2] was 7583.83 CELLS/uL and the “ABSOLUTE MONOCYTE” value [2] was 131.33 CELLS/uL. The “ABSOLUTE SEGMENTED NEUTROPHIL” value [2] was 674.83 CELLS/uL, the BASOPHIL [2] was 0% and the EOSINOPHIL [2] was 0.33%. For the same molecule, the “ERYTHROCYTE COUNT” value [2] was 5.78 x10E6/uL, the HEMATOCRIT [2] was 36.48% and the HEMOGLOBIN [2] was 14.03 G/DL. The “LEUKOCYTE COUNT” value [2] was 8.42 x10E3/uL, the LYMPHOCYTE [2] was 89.83% and the “MEAN CORPUSCULAR HEMOGLOBIN” value [2] was 24.3 pg. The “MEAN CORPUSCULAR HEMOGLOBIN CONCENTRATION” value [2] was 38.52 G/DL, the “MEAN CORPUSCULAR VOLUME” value [2] was 63.15 fL and the MONOCYTE [2] was 1.67%. For the same molecule, the NEUTROPHIL [2] was 8.17%, the “NUCLEATED RED BLOOD CELLS” value [2] was 0 /100WBC and the “PLATELET COUNT” value [2] was 1186.67 x10E3/uL. The “ALANINE AMINOTRANSFERASE” value [2] was 50.17 u/L, the ALBUMIN [2] was 4.07 G/DL and the “ALKALINE PHOSPHATASE” value [2] was 367.5 u/L. The “ASPARTATE AMINOTRANSFERASE” value [2] was 81.67 u/L, the “BLOOD UREA NITROGEN” value [2] was 16.17 mg/dL and the “CARBON DIOXIDE” value [2] was 32.33 mmol/L. The CHLORIDE [2] was 101.5 MEQ/L, the CHOLESTEROL [2] was 65.33 mg/dL and the “CREATINE PHOSPHOKINASE” value [2] was 255.33 u/L. For the same molecule, the CREATININE [2] was 0.17 mg/dL, the GLUCOSE [2] was 139.33 mg/dL and the “LACTATE DEHYDROGENASE” value [2] was 95 u/L. It also gave an LIPASE [2] of 10.5 u/L, a PHOSPHORUS [2] of 10.38 mg/dL and a POTASSIUM [2] of 6.11 MEQ/L. The SODIUM [2] was 145.55 MEQ/L, the “TOTAL BILIRUBIN” value [2] was 0.17 mg/dL and the “TOTAL PROTEIN” value [2] was 5.98 G/DL. The “URIC ACID” value [2] was 0.93 mg/dL, the “ABSOLUTE BASOPHIL” value [3] was 0 CELLS/uL and the “ABSOLUTE EOSINOPHIL” value [3] was 39 CELLS/uL. The “ABSOLUTE LYMPHOCYTE” value [3] was 10656.67 CELLS/uL, the “ABSOLUTE MONOCYTE” value [3] was 38.67 CELLS/uL and the “ABSOLUTE SEGMENTED NEUTROPHIL” value [3] was 1065.67 CELLS/uL. The BASOPHIL [3] was 0%, the EOSINOPHIL [3] was 0.33% and the “ERYTHROCYTE COUNT” value [3] was 5.76 x10E6/uL. For the same molecule, the HEMATOCRIT [3] was 36.33%, the HEMOGLOBIN [3] was 13.93 G/DL and the “LEUKOCYTE COUNT” value [3] was 11.8 x10E3/uL. For the same molecule, the LYMPHOCYTE [3] was 90.33%, the “MEAN CORPUSCULAR HEMOGLOBIN” value [3] was 24.2 pg and the “MEAN CORPUSCULAR HEMOGLOBIN CONCENTRATION” value [3] was 38.37 G/DL. The “MEAN CORPUSCULAR VOLUME” value [3] was 63.07 fL, the MONOCYTE [3] was 0.33% and the NEUTROPHIL [3] was 9%. For the same molecule, the “NUCLEATED RED BLOOD CELLS” value [3] was 0 /100WBC, the “PLATELET COUNT” value [3] was 1289 x10E3/uL and the “ALANINE AMINOTRANSFERASE” value [3] was 45 u/L. For the same molecule, the ALBUMIN [3] was 3.83 G/DL, the “ALKALINE PHOSPHATASE” value [3] was 321.33 u/L and the “ASPARTATE AMINOTRANSFERASE” value [3] was 76.67 u/L. For the same molecule, the “BLOOD UREA NITROGEN” value [3] was 14.67 mg/dL, the “CARBON DIOXIDE” value [3] was 26 mmol/L and the CHLORIDE [3] was 103.33 MEQ/L. For the same molecule, the CHOLESTEROL [3] was 64.67 mg/dL, the “CREATINE PHOSPHOKINASE” value [3] was 413.33 u/L and the CREATININE [3] was 0.14 mg/dL. For the same molecule, the GLUCOSE [3] was 155 mg/dL, the “LACTATE DEHYDROGENASE” value [3] was 166.33 u/L and the LIPASE [3] was 8.67 u/L. For the same molecule, the PHOSPHORUS [3] was 12.6 mg/dL, the POTASSIUM [3] was 6.24 MEQ/L and the SODIUM [3] was 143.73 MEQ/L. The “TOTAL BILIRUBIN” value [3] was 0.17 mg/dL, the “TOTAL PROTEIN” value [3] was 5.63 G/DL and the “URIC ACID” value [3] was 1.4 mg/dL.
